Measured values: patent US20130018062A1, “Pain therapy with metabolism blocked antifolates” (priority 2011, published 2013)
Read-outs that look alike come from different tables or passages of the source.

Key:
[1] = test system: patients with Rheumatoid Arthritis; experiment: Pain assessment by VAS scale in patients treated with M-Trex (Example-1); type: in vivo, human
Description: Of special importance was the novel observation of the ability of M-Trex to substantially reduce Pain in human subjects who were suffering from inflammation caused by autoimmune response. [O. Castaneda and M. G. Nair. Controlled trial of methotrexate versus CH-1504 in the treatment of Rheumatoid Arthritis. The J. Rheumatology. 33, 862-64, 2006.] […] Another unique observation with M-Trex was its ability to shrink human tumor xenografts in immuno-compromised mice. The ability of metabolism blocked antifolate M-Trex to shrink rapidly proliferating human tissues is representative and results in Pain reduction secondary to such proliferation. [EXAMPLE-1]** ** Pain assessment was made using the VAS scale every four weeks. Patients were treated with a daily oral dose of 7.5 mg/day of M-Trex during the duration of measurements. […] Pain as assessed by VAS was reduced from a scale of 7.2 to 1.8.
There are three general accepted methods for the evaluation of Pain in patients suffering from a number of diseases. They are Visual Analog Scale (VAS); Numeric rating Scale (NRS) and Verbal Categorical Rating Scale […]. Of these three assessment methods VAS is considered to be most reliable in a majority of cases to evaluate and quantify the magnitude of the perception of Pain. […]

C-Reactive Protein (CRP) [2] = experiment: Plasma CRP levels of patients on therapy with M-Trex for Rheumatoid Arthritis (Example-2); type: in vivo, human; conditions: arthritic patients taking M-Trex, clinical study by Castaneda and Nair
Description: Coronary Heart Disease (CHD), Cardio-vascular diseases (CVD) and Stroke are of the same generic species by virtue of Inflammation being the common underlying cause of their occurrence. In fact an article by the American Heart Association entitled “Inflammation, Heart Disease and Stroke. The role of C-Reactive Protein” stressed that markers of Inflammation are more accurate and reliable predictive factors than total cholesterol levels in humans. [www.americanheart.org/presenter.jhtml?presenter=4648]. The most accurate predictive factor for the incidence of CHD, CVD and stroke is elevated levels of C-Reactive Protein (CRP).

[3] = Toxicity (maximum tolerated dose, weight loss) in nude mice bearing HCT-8 xenograft; type: in vivo; conditions: i.v. push daily × 5 in nude mice
[4] = test system: patients with Rheumatoid Arthritis; experiment: Morning stiffness and swollen joints in patients with Rheumatoid Arthritis treated with M-Trex (Example-6); type: in vivo, human
Description: MS (Morning Stiffness); S. Joints (Swollen Joints) were remarkably responsive to M-Trex therapy. Stiffness exacerbates Pain especially in joints by virtue of inflexibility and reduction is blood circulation. Swelling of joints is secondary to inflammation caused by autoimmune response in patients with Rheumatoid Arthritis. […] The initial numbers represents the values at the start of the study before the treatment and the remaining four numbers are values determined during each visit while taking M-Trex medication.
In joints stiffness (duration measured in minutes as above) is caused by inflammation of the synovium that lines the joint. Inflammation due to bone spurs as in Oesteo-arthritis causes Pain. Thus reduction of stiffness reduces the severity of inflammation and Pain. Abnormal tissue growth characterized by benign and malignant neoplasms cause stiffness due to compression of tissues, interfering with blood flow and irritation of the autonomic nervous system. Metabolism blocked antifolates are shown to be capable of decompression of tissues by interfering with tissue growth as shown in Examples 4, 5 and 6. These examples establish that metabolism blocked antifolates can decompress cancer tissues and ameliorate cancer pain.

A549/ATCC (NSCLC) = experiment: Growth inhibition of human tumor cells in culture (NCI); type: cell-based
Description: (§1) The preceding data collected at the National Cancer Institute summarize the ability of M-Trex to inhibit 50% of the growth of selected tumor cells in culture. The values are expressed as Log10 GI50 values all of which are lower than 10^−8M. In the same table a comparison is made of the respective values of TGI (Total Growth Inhibition) for M-Trex and MTX. […] In addition, the Log10 GI50 values of M-Trex was lower than −8.00 for the following cell lines: NSCLC, A549/ATCC and NCI H23; Colon Cancer, HCT 116, HCT 29 and SW 620; CNS Cancer, SF 268; Melanoma M 14 and UACC 62; Ovarian Cancer, OVCAR-8; Renal Cancer, ACHN, CAKI-1, SN 12C, and UO 31; Prostate Cancer, PC 3 and Breast cancer, MDA-MB-435 and MDA-N. The MG_MID value of MTX for all 49 human tumor cell lines evaluated at NCI-DTP program was −7.05. […] The tumors and sarcomas are solid while leukemia and lymphoma are liquid tumors.

ACHN (Renal Cancer) = experiment: as above; type: cell-based
Description: as §1

HCT 29 (Colon Cancer) = experiment: as above; type: cell-based
Description: as §1

K562 (Leukemia) = experiment: as above; type: cell-based; conditions: logarithmic value
Description: as §1

MCF-7 (Breast Cancer) = experiment: as above; type: cell-based; conditions: logarithmic value
Description: as §1

PC 3 (Prostate Cancer) = experiment: as above; type: cell-based
Description: as §1

RPMI 8226 (Leukemia) = experiment: as above; type: cell-based; conditions: logarithmic value
Description: as §1

SF 539 (CNS Cancer) = experiment: as above; type: cell-based; conditions: logarithmic value
Description: as §1

SR (Leukemia) = experiment: as above; type: cell-based; conditions: logarithmic value
Description: as §1

UACC 62 (Melanoma) = experiment: as above; type: cell-based
Description: as §1

C-Reactive Protein (CRP) [5] = test system: C-Reactive Protein (CRP); design: unit not given here; conditions: RA patients on therapy with M-Trex, cited from earlier work
[6] = first visit while taking M-Trex
[7] = fourth visit while taking M-Trex
[8] = second visit while taking M-Trex
[9] = start of the study before the treatment
[10] = third visit while taking M-Trex

With C=C(CC(NC(=O)c1ccc(CCc2ccc3nc(N)nc(N)c3c2)cc1)C(=O)O)C(=O)O (stereo not shown) [M-Trex, 4′-methylene-5,8-10-trideazaaminopterin] the “Pain as assessed by VAS” value ([1]; starting value from which pain was reduced, Rheumatoid Arthritis patients) was 7.2, the “Pain as assessed by VAS” value ([1]; value reached on daily oral dose of 7.5 mg/day of M-Trex, assessed every four weeks) was 1.8 and the “Change of CRP levels (in words)” value (C-Reactive Protein (CRP) [2]) was “significant and consistent reduction”. The “Maximum Tolerated dose” value [3] was “M-Trex (4.0 mg/kg/day)”, the “MS (Morning Stiffness), duration” value [4, 6] was 26′ minutes and the “S. Joints (number of Swollen Joints)” value [4, 6] was 5.6. For the same compound, the “MS (Morning Stiffness), duration” value [4, 7] was 14′ minutes, the “S. Joints (number of Swollen Joints)” value [4, 7] was 2.9 and the “MS (Morning Stiffness), duration” value [4, 8] was 22′ minutes. The “S. Joints (number of Swollen Joints)” value [4, 8] was 3.5, the “MS (Morning Stiffness), duration” value [4, 9] was 99′ minutes and the “S. Joints (number of Swollen Joints)” value [4, 9] was 12.5. For the same compound, the “MS (Morning Stiffness), duration” value [4, 10] was 20′ minutes, the “S. Joints (number of Swollen Joints)” value [4, 10] was 3.0 and the “Log10 GI50” value (A549/ATCC (NSCLC)) was “lower than −8.00”. The “Log10 GI50” value (ACHN (Renal Cancer)) was “lower than −8.00”, the “Log10 GI50” value (HCT 29 (Colon Cancer)) was “lower than −8.00” and the “TGI (Total Growth Inhibition)” value (K562 (Leukemia)) was <−8.00. For the same compound, the “TGI (Total Growth Inhibition)” value (MCF-7 (Breast Cancer)) was −6.32, the “Log10 GI50” value (PC 3 (Prostate Cancer)) was “lower than −8.00” and the “TGI (Total Growth Inhibition)” value (RPMI 8226 (Leukemia)) was −7.44. The “TGI (Total Growth Inhibition)” value (SF 539 (CNS Cancer)) was −6.3, the “TGI (Total Growth Inhibition)” value (SR (Leukemia)) was <−8.00 and the “Log10 GI50” value (UACC 62 (Melanoma)) was “lower than −8.00”. For the same compound, the “Plasma CRP Levels” value (C-Reactive Protein (CRP) [5]; visit at 4 weeks) was 22.1, the “Plasma CRP Levels” value (C-Reactive Protein (CRP) [5]; visit at 8 weeks) was 20.7 and the “Plasma CRP Levels” value (C-Reactive Protein (CRP) [5]; visit at 12 weeks) was 17.7. For the same compound, the “Plasma CRP Levels” value (C-Reactive Protein (CRP) [5]; visit at 16 weeks) was 13.6.
